In ChEMBL document CHEMBL2040728, “New substituted 4H-chromenes as anticancer agents” (Bioorg Med Chem Lett, 2012):
pIC50: −log10 of the molar value.

Columns and labels:
[1] = Antiproliferative activity against human paclitaxel-resistant PC3-TxR cells after 96 hrs by SRB assay; format: functional, cell-based
[2] = Antiproliferative activity against human WM164 cells after 48 hrs by SRB assay; format: functional, cell-based; conditions: WM164, 48 h
[3] = test system: LNCaP; assay: Antiproliferative activity against human LNCAP cells after 96 hrs by SRB assay; format: functional, cell-based
[4] = test system: PC-3; assay: Antiproliferative activity against human PC3 cells after 96 hrs by SRB assay; format: functional, cell-based; conditions: PC-3, 96 h
[5] = test system: A-375; assay: Antiproliferative activity against human A375 cells after 48 hrs by SRB assay; format: functional, cell-based; conditions: A-375, 48 h
[6] = test system: NCI-H460; assay: Cytotoxicity against human NCI-H460 cells assessed as growth at 10 uM; format: functional; conditions: read-out: Activity
[7] = test system: OVCAR-3; assay: Cytotoxicity against human OVCAR3 cells assessed as growth at 10 uM; format: functional; conditions: read-out: Activity
[8] = test system: Malme-3M; assay: Cytotoxicity against human MALME-3M cells assessed as growth at 10 uM; format: functional; conditions: read-out: Activity
[9] = test system: NCI/ADR-RES; assay: Cytotoxicity against human NCI/ADR-RES cells assessed as growth at 10 uM; format: functional; conditions: read-out: Activity
[10] = test system: IGROV-1; assay: Cytotoxicity against human IGROV1 cells assessed as growth at 10 uM; format: functional; conditions: read-out: Activity
[11] = test system: SK-MEL-2; assay: Cytotoxicity against human SK-MEL-2 cells assessed as growth at 10 uM; format: functional; conditions: read-out: Activity
[12] = test system: UACC-62; assay: Cytotoxicity against human UACC62 cells assessed as growth at 10 uM; format: functional; conditions: read-out: Activity
[13] = test system: CCRF-CEM; assay: Cytotoxicity against human CCRF-CEM cells assessed as growth at 10 uM; format: functional; conditions: read-out: Activity
[14] = test system: MDA-MB-435; assay: Cytotoxicity against human MDA-MB-435 cells assessed as growth at 10 uM; format: functional; conditions: read-out: Activity
[15] = test system: BT-549; assay: Cytotoxicity against human BT549 cells assessed as growth at 10 uM; format: functional; conditions: read-out: Activity
[16] = test system: HOP-62; assay: Cytotoxicity against human HOP62 cells assessed as growth at 10 uM; format: functional; conditions: read-out: Activity
[17] = test system: MCF7; assay: Cytotoxicity against human MCF7 cells assessed as growth at 10 uM; format: functional; conditions: read-out: Activity
[18] = test system: T47D; assay: Cytotoxicity against human T47D cells assessed as growth at 10 uM; format: functional; conditions: read-out: Activity
[19] = test system: MDA-MB-468; assay: Cytotoxicity against human MDA-MB-468 cells assessed as growth at 10 uM; format: functional; conditions: read-out: Activity
[20] = test system: HL-60(TB); assay: Cytotoxicity against human HL-60(TB) cells assessed as growth at 10 uM; format: functional; conditions: read-out: Activity
[21] = test system: OVCAR-8; assay: Cytotoxicity against human OVCAR8 cells assessed as growth at 10 uM; format: functional; conditions: read-out: Activity
[22] = test system: U-251; assay: Cytotoxicity against human U251 cells assessed as growth at 10 uM; format: functional; conditions: read-out: Activity
[23] = test system: DU-145; assay: Cytotoxicity against human DU145 cells assessed as growth at 10 uM; format: functional; conditions: read-out: Activity
[24] = test system: SN12C; assay: Cytotoxicity against human SN12C cells assessed as growth at 10 uM; format: functional; conditions: read-out: Activity
[25] = test system: MOLT-4; assay: Cytotoxicity against human MOLT4 cells assessed as growth at 10 uM; format: functional; conditions: read-out: Activity
[26] = test system: NCI-H226; assay: Cytotoxicity against human NCI-H226 cells assessed as growth at 10 uM; format: functional; conditions: read-out: Activity
[27] = test system: SNB-75; assay: Cytotoxicity against human SNB75 cells assessed as growth at 10 uM; format: functional; conditions: read-out: Activity
[28] = test system: SK-MEL-5; assay: Cytotoxicity against human SK-MEL-5 cells assessed as growth at 10 uM; format: functional; conditions: read-out: Activity
[29] = test system: PC-3; assay: Cytotoxicity against human PC3 cells assessed as growth at 10 uM; format: functional; conditions: read-out: Activity
[30] = test system: SF-539; assay: Cytotoxicity against human SF539 cells assessed as growth at 10 uM; format: functional; conditions: read-out: Activity
[31] = test system: HCT-15; assay: Cytotoxicity against human HCT15 cells assessed as growth at 10 uM; format: functional; conditions: read-out: Activity
[32] = test system: HT-29; assay: Cytotoxicity against human HT-29 cells assessed as growth at 10 uM; format: functional; conditions: read-out: Activity
[33] = test system: K562; assay: Cytotoxicity against human K562 cells assessed as growth at 10 uM; format: functional; conditions: read-out: Activity
[34] = test system: NCI-H522; assay: Cytotoxicity against human NCI-H522 cells assessed as growth at 10 uM; format: functional; conditions: read-out: Activity
[35] = test system: SF-268; assay: Cytotoxicity against human SF268 cells assessed as growth at 10 uM; format: functional; conditions: read-out: Activity
[36] = test system: HCC 2998; assay: Cytotoxicity against human HCC2998 cells assessed as growth at 10 uM; format: functional; conditions: read-out: Activity
[37] = test system: UO-31; assay: Cytotoxicity against human UO31 cells assessed as growth at 10 uM; format: functional; conditions: read-out: Activity
[38] = Cytotoxicity against mouse primary astrocytes after 5 days by MTT assay; format: cell-based; conditions: Astrocyte, 120 h
[39] = test system: ACHN; assay: Cytotoxicity against human ACHN cells assessed as growth at 10 uM; format: functional; conditions: read-out: Activity
[40] = test system: LOX IMVI; assay: Cytotoxicity against human LOXIMVI cells assessed as growth at 10 uM; format: functional; conditions: read-out: Activity
[41] = test system: A549; assay: Cytotoxicity against human A549 cells assessed as growth at 10 uM; format: functional; conditions: read-out: Activity
[42] = Cytotoxicity against human Hs 578T cells assessed as growth at 10 uM; format: functional; conditions: read-out: Activity
[43] = test system: NCI-H23; assay: Cytotoxicity against human NCI-H23 cells assessed as growth at 10 uM; format: functional; conditions: read-out: Activity
[44] = test system: OVCAR-5; assay: Cytotoxicity against human OVCAR5 cells assessed as growth at 10 uM; format: functional; conditions: read-out: Activity
[45] = test system: M14; assay: Cytotoxicity against human M14 cells assessed as growth at 10 uM; format: functional; conditions: read-out: Activity
[46] = test system: EKVX; assay: Cytotoxicity against human EKVX cells assessed as growth at 10 uM; format: functional; conditions: read-out: Activity
[47] = test system: SNB-19; assay: Cytotoxicity against human SNB19 cells assessed as growth at 10 uM; format: functional; conditions: read-out: Activity
[48] = test system: RXF 393; assay: Cytotoxicity against human RXF393 cells assessed as growth at 10 uM; format: functional; conditions: read-out: Activity
[49] = test system: OVCAR-4; assay: Cytotoxicity against human OVCAR4 cells assessed as growth at 10 uM; format: functional; conditions: read-out: Activity
[50] = test system: CAKI-1; assay: Cytotoxicity against human Caki1 cells assessed as growth at 10 uM; format: functional; conditions: read-out: Activity
[51] = test system: UACC-257; assay: Cytotoxicity against human UACC257 cells assessed as growth at 10 uM; format: functional; conditions: read-out: Activity
[52] = test system: SK-MEL-28; assay: Cytotoxicity against human SK-MEL-28 cells assessed as growth at 10 uM; format: functional; conditions: read-out: Activity
[53] = test system: TK-10; assay: Cytotoxicity against human TK10 cells assessed as growth at 10 uM; format: functional; conditions: read-out: Activity
[54] = test system: SK-OV-3; assay: Cytotoxicity against human SKOV3 cells assessed as growth at 10 uM; format: functional; conditions: read-out: Activity
[55] = test system: 786-0; assay: Cytotoxicity against human 786-0 cells assessed as growth at 10 uM; format: functional; conditions: read-out: Activity
[56] = test system: KM12; assay: Cytotoxicity against human KM12 cells assessed as growth at 10 uM; format: functional; conditions: read-out: Activity
[57] = test system: RPMI-8226; assay: Cytotoxicity against human RPMI8226 cells assessed as growth at 10 uM; format: functional; conditions: read-out: Activity
[58] = test system: HCT-116; assay: Cytotoxicity against human HCT116 cells assessed as growth at 10 uM; format: functional; conditions: read-out: Activity
[59] = test system: HOP-92; assay: Cytotoxicity against human HOP92 cells assessed as growth at 10 uM; format: functional; conditions: read-out: Activity
[60] = Antiproliferative activity against human A172 cells after 5 days by MTT assay; format: functional, cell-based; conditions: A 172, 120 h
[61] = test system: MDA-MB-231; assay: Cytotoxicity against human MDA-MB-231 cells assessed as growth at 10 uM; format: functional; conditions: read-out: Activity
[62] = test system: SW-620; assay: Cytotoxicity against human SW620 cells assessed as growth at 10 uM; format: functional; conditions: read-out: Activity
[63] = test system: NCI-H322M; assay: Cytotoxicity against human NCI-H322M cells assessed as growth at 10 uM; format: functional; conditions: read-out: Activity
[64] = test system: COLO 205; assay: Cytotoxicity against human COLO205 cells assessed as growth at 10 uM; format: functional; conditions: read-out: Activity
[65] = Antiproliferative activity against human LN18 cells after 5 days by MTT assay; format: functional, cell-based; conditions: LN-18, 120 h
[66] = test system: SF-295; assay: Cytotoxicity against human SF295 cells assessed as growth at 10 uM; format: functional; conditions: read-out: Activity
[67] = Antiproliferative activity against human U87 cells after 5 days by MTT assay; format: functional, cell-based, U-87MG ATCC; conditions: U-87 MG, 120 h

CN(C)c1ccc2c(c1)OC(N)=C(C#N)C2c1cccc2c(Br)cccc12 (centres undefined)
pIC50 [1]: 6.68 | pIC50 [2]: 6.66 | pIC50 [3]: 6.55 | pIC50 [4]: 6.41 | pIC50 [5]: 6.85

COc1cc2c(c(OC)c1OC)-c1ccc(OC)c(=O)cc1[C@@H](NC(C)=O)CC2 [COLCHICINE]
pIC50 [1]: 7.70 | pIC50 [2]: 7.52

CN(C)c1ccc2c(c1)OC(N)=C(C#N)C2c1ccc(F)c2ccccc12 (centres undefined)
pIC50 [1]: 6.54 | pIC50 [2]: 6.33 | pIC50 [3]: 6.39 | pIC50 [4]: 6.19 | pIC50 [5]: 6.55

CN(C)c1ccc2c(c1)OC(N)=C(C#N)C2c1cccc2c(F)cccc12 (centres undefined)
growth at 10 µM [6]: 1.28% | growth at 10 µM [7]: -35.4% | growth at 10 µM [8]: 49.6% | pIC50 [1]: 6.72 | growth at 10 µM [9]: -6.17% | growth at 10 µM [10]: 32.3% | growth at 10 µM [11]: 27.9% | growth at 10 µM [12]: 38.9% | growth at 10 µM [13]: 11.3% | growth at 10 µM [14]: -32.4% | growth at 10 µM [15]: -12.8% | growth at 10 µM [16]: 39.8% | pIC50 [2]: 6.66 | growth at 10 µM [17]: 13.3% | growth at 10 µM [18]: 61.8% | growth at 10 µM [19]: 27.6% | growth at 10 µM [20]: -18.4% | growth at 10 µM [21]: -23.4% | growth at 10 µM [22]: 6.44% | growth at 10 µM [23]: -16.5% | growth at 10 µM [24]: 16.4% | growth at 10 µM [25]: 13.9% | growth at 10 µM [26]: 0% | growth at 10 µM [27]: 22.3% | growth at 10 µM [28]: 13.7% | growth at 10 µM [29]: 14.4% | pIC50 [3]: 6.60 | growth at 10 µM [30]: -7.29% | growth at 10 µM [31]: 6.89% | growth at 10 µM [32]: -3.8% | growth at 10 µM [33]: 6.85% | growth at 10 µM [34]: -17.5% | growth at 10 µM [35]: 24.8% | growth at 10 µM [36]: 7.74% | growth at 10 µM [37]: 49.4% | pIC50 [38]: 5.02 | growth at 10 µM [39]: 27.6% | growth at 10 µM [40]: 5.96% | growth at 10 µM [41]: 11.5% | growth at 10 µM [42]: 19.2% | growth at 10 µM [43]: -0.47% | growth at 10 µM [44]: 27.6% | growth at 10 µM [45]: -1.53% | growth at 10 µM [46]: 36.7% | growth at 10 µM [47]: 39% | pIC50 [4]: 6.38 | growth at 10 µM [48]: 7.11% | growth at 10 µM [49]: 27.3% | pIC50 [5]: 6.89 | growth at 10 µM [50]: 22.9% | growth at 10 µM [51]: 51.5% | growth at 10 µM [52]: 54.1% | growth at 10 µM [53]: 45.8% | growth at 10 µM [54]: 5.75% | growth at 10 µM [55]: 16.8% | growth at 10 µM [56]: -0.79% | growth at 10 µM [57]: 20.5% | growth at 10 µM [58]: -5.99% | growth at 10 µM [59]: -2.42% | pIC50 [60]: 7.68 | growth at 10 µM [61]: 31.9% | growth at 10 µM [62]: 23.5% | growth at 10 µM [63]: 45.4% | growth at 10 µM [64]: -38.1% | pIC50 [65]: 7.09 | growth at 10 µM [66]: 8.13% | pIC50 [67]: 7.20
